In patent US7381824B2 (Agouron Pharmaceuticals, Inc., priority 2003, dated 2008) one finds Ki data, which are given here for 32 compounds.

The test addresses T1, human vascular endothelial growth factor receptor 2 (VEGF-R2) (Homo sapiens, UniProt P35968, DEL940-989/E990V).
T1 construct: VEGF-R2D50 contains residues 806-939 and 990-1171; made in house; host or cells: baculovirus/insect cell system
As to the kind of experiment: VEGF-R2 coupled spectrophotometric assay (FLVK, unphosphorylated VEGF-R2D50). It counts as biochemical. As to conditions: unphosphorylated VEGF-R2D50 (FLVK). The text has this:
This construct determines the ability of a test compound to inhibit tyrosine kinase activity. A construct (VEGF-R2D50) of the cytosolic domain of human vascular endothelial growth factor receptor 2 (VEGF-R2) lacking the 50 central residues of the 68 residues of the kinase insert domain was expressed in a baculovirus/insect cell system. Of the 1356 residues of full-length VEGF-R2, VEGF-R2D50 contains residues 806-939 and 990-1171, and also one point mutation (E990V) within the kinase insert domain relative to wild-type VEGF-R2. Autophosphorylation of the purified construct was performed by incubation of the enzyme at a concentration of […] in the presence of 3 mM ATP and 40 mM MgCl2 in 100 mM HEPES, pH 7.5, containing 5% glycerol and 5 mM DTT, at 4° C. for 2 h. […] See Parast et al., Biochemistry, 37, 16788-16801 (1998).
VEGF-R2 Assay: Coupled Spectrophotometric (FLVK-P) Assay
The production of ADP from ATP that accompanies phosphoryl transfer was coupled to oxidation of NADH using phosphoenolpyruvate (PEP) and a system having pyruvate kinase (PK) and lactic dehydrogenase (LDH). The oxidation of NADH was monitored by following the decrease of absorbance at 340 nm (e340=6.22 cm^−1 mM^−1) using a Beckman DU 650 spectrophotometer. Assay conditions for phosphorylated VEGF-R2D50 (indicated as FLVK-P in the tables below) were the following: 1 mM PEP; […] NADH; 50 units of LDH/mL; 20 units of PK/mL; 5 mM DTT; 5.1 mM poly(E4Y1); 1 mM ATP; and 25 mM MgCl2 in 200 mM HEPES, pH 7.5. Assay conditions for unphosphorylated VEGF-R2D50 (indicated as FLVK in the tables) were the following: 1 mM PEP; […] NADH; 50 units of LDH/mL; 20 units of PK/mL; 5 mM DTT; 20 mM poly(E4Y1); 3 mM ATP; and 60 mM MgCl2 and 2 mM MnCl2 in 200 mM HEPES, pH 7.5. Assays were initiated with 5 to 40 nM of enzyme. K1 values were determined by measuring enzyme activity in the presence of varying concentrations of test compounds. The percent inhibition at 50 nM (% inhibition @ 50 nM) was determined by linear least-squares regression analysis of absorbance as a function of time. The binding inhibitions were fitted to equation as described by Morrison. The data were analyzed using Enzyme Kinetic and Kaleidagraph software.

T1 sequence (P35968 with tags, fused parts or gaps DEL940-989/E990V limits assumed): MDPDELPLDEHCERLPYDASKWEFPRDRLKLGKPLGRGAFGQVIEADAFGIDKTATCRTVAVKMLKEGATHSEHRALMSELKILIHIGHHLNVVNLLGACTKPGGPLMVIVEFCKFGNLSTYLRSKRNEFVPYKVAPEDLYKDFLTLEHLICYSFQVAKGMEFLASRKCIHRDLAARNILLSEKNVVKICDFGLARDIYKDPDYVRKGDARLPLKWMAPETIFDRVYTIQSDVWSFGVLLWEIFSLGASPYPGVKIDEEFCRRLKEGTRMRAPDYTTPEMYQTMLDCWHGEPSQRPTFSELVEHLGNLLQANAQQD

In general, Ki refers to the dissociation constant of the complex between target and ligand, obtained from inhibition or displacement. Read a high Ki as lower affinity. Turning to `CNC(=O)c1c(C)oc2cc(Oc3ccnc4cc(-c5ccncc5)ccc34)ccc12` [Example 7, N-2-dimethyl-6-[(7-pyridin-4-ylquinolin-4-yl)oxy]-1-benzofuran-3-carboxamide], the Ki is below 0.001 µM.

Consider `CNC(=O)n1c(C)cc2cc(Nc3ccnc4cc(-c5cccnc5)ccc34)ccc21` [Example 12, N,2-dimethyl-5-[(7-pyridin-3-ylquinolin-4-yl)amino]-1H-indole-1-carboxamide], for which the Ki was above 0.01 µM. In the case of `CNC(=O)c1c(C)oc2cc(Oc3ccnc4cc(C(=O)N5CCC[C@H]5COC)ccc34)ccc12` [Example 15, 6-[(7-([(2S)-2-(methoxymethyl)pyrrolidin-1-yl]carbonyl}quinolin-4-yl)oxy]-N,2-dimethyl-1-benzofuran-3-carboxamide], the Ki is 0.001 to 0.01 µM. `CNC(=O)c1c(C)sc2cc(Oc3ccnc4cc(C(=O)N5CCC[C@H]5COC)ccc34)ccc12` [Example 16, 6-[(7-{[(2S)-2-(methoxymethyl)pyrrolidin-1-yl]carbonyl)quinolin-4-yl)oxy]-N,2-dimethyl-1-benzothiophene-3-carboxamide] gave a Ki above 0.01 µM. `CNC(=O)c1c(C)sc2cc(Oc3ccnc4cc(-c5ncccn5)ccc34)ccc12` [Example 18, N,2-dimethyl-6-[(7-pyrimidin-2-ylquinolin-4-yl)oxy]-1-benzothiophene-3-carboxamide] registered a Ki above 0.01 µM. The compound `CNC(=O)c1c(C)sc2cc(Oc3ccnc4cc(Br)ccc34)ccc12` [Example 20, 6-[(7-bromoquinolin-4-yl)oxy]-N,2-dimethy-1-benzothiophene-3-carboxamide] returned an inhibition constant (Ki) above 0.01 µM. The compound `CNC(=O)c1c(C)sc2cc(Oc3ccnc4ccc(-c5ccncc5)cc34)ccc12` [Example 23, N,2-dimethyl-6-[(6-pyridin-4-ylquinolin-4-yl)oxy]-1-benzothiophene-3-carboxamide] came in with an inhibitory constant (Ki) above 0.01 µM. For `CNC(=O)c1c(C)oc2cc(Oc3ccnc4ccc(-c5ccncc5)cc34)ccc12` [Example 24, N,2-dimethyl-6-[(6-pyridin-4-ylquinolin-4-yl)oxy]-1-benzofuran-3-carboxamide] the value was 0.001 to 0.01 µM. Take `CNC(=O)c1c(C)sc2cc(Oc3ccnc4ccc(O)cc34)ccc12` [Example 27, 6-[(6-hydroxyquinolin-4-yl)oxy]-N,2-dimethyl-1-benzothiophene-3-carboxamide]: the Ki is above 0.01 µM. The value for `CNC(=O)c1c(C)oc2cc(Oc3ccnc4cc(-c5nccs5)ccc34)ccc12` [Example 30] was below 0.001 µM; that for `CNC(=O)c1c(C)oc2cc(Oc3ccnc4cc(OCc5ccccn5)ccc34)ccc12` [Example 33] was 0.001 to 0.01 µM; that for `COc1ccc2c(Oc3ccc4c(C(=O)NCCN(C)C)c(C)sc4c3)ccnc2c1` [Example 49, N-[2-(dimethylamino)ethyl]-6-[(7-methoxyquinolin-4-yl)oxy]-2-methyl-1-benzothiophene-3-carboxamide] was above 0.01 µM. The value for `COc1ccc2c(Oc3ccc4c(C(=O)NCc5cccnc5)c(C)sc4c3)ccnc2c1` [Example 54, 6-[(7-methoxyquinolin-4-yl)oxy]-2-methyl-N-(pyridin-3-ylmethyl)-1-benzothiophene-3-carboxamide] was above 0.01 µM; that for `CCCNC(=O)c1c(C)sc2cc(Oc3ccnc4cc(O)ccc34)ccc12` [Example 55, 6-[(7-hydroxyquinolin-4-yl)oxy]-2-methyl-N-propyl-1-benzothiophene-3-carboxamide] was above 0.01 µM. With `Cc1sc2cc(Oc3ccnc4cc(O)ccc34)ccc2c1C(=O)NC1CCCC1` [Example 56, N-cyclopentyl-6-[(7-hydroxyquinolin-4-yl)oxy]-2-methyl-1-benzothiophene-3-carboxamide], the Ki was above 0.01 µM. `Cc1sc2cc(Oc3ccnc4cc(O)ccc34)ccc2c1C(=O)NCCN(C)C` [Example 57, N-[2-(dimethylamino)ethyl]-6-[(7-hydroxyquinolin-4-yl)oxy]-2-methyl-1-benzothiophene-3-carboxamide]: the Ki was above 0.01 µM. For `CNC(=O)c1c(C)sc2cc(Oc3ccnc4cc(C(F)(F)F)ccc34)ccc12` [Example 60, N,2-dimethyl-6-{[7-(trifluoromethyl)quinolin-4-yl]oxy}-1-benzothiophene-3-carboxamide] the value was above 0.01 µM. Consider `CNC(=O)c1c(C)oc2cc(Oc3ccnc4cc(C(F)(F)F)ccc34)ccc12` [Example 61, N,2-dimethyl-6-{[7-(trifluoromethyl)quinolin-4-yl]oxy}-1-benzofuran-3-carboxamide], for which the Ki was above 0.01 µM. In the case of `COc1ccc2c(Oc3ccc4c(C(=O)NC(C)C)c(C)sc4c3)ccnc2c1` [Example 71, N-isopropyl-6-[(7-methoxyquinolin-4-yl)oxy]-2-methyl-1-benzothiophene-3-carboxamide], the Ki fell in the range of 0.001 to 0.01 µM. In turn, `CNC(=O)c1c(C)n(C)c2cc(Oc3ccnc4cc(OC)ccc34)ccc12` [Example 75, [(7-methoxyquinolin-4-yl)oxy]-N,1,2-trimethyl-1H-indole-3-carboxamide] showed a Ki above 0.01 µM. `CNC(=O)c1c(C)n(C)c2cc(Oc3ccnc4cc(O)ccc34)ccc12` [Example 76] returned a Ki above 0.01 µM. For `CNC(=O)c1c(C)n(C)c2cc(Oc3ccnc4cc(OCCN5CCOCC5)ccc34)ccc12` [Example 77, N,1,2-trimethyl-6-{[7-(2-morpholin-4-ylethoxy)quinolin-4-yl]oxy}-1H-indole-3-carboxamide], the Ki is above 0.01 µM. On to `CNC(=O)c1c(C)n(C)c2cc(Oc3ccnc4cc(OCCN5CCCC5)ccc34)ccc12` [Example 78, N,1,2-trimethyl-6-{[7-(2-pyrrolidin-1-ylethoxy)quinolin-4-yl]oxy}-1H-indole-3-carboxamide], for which the Ki is above 0.01 µM. The value for `CNC(=O)c1c(C)n(C)c2cc(Oc3ccnc4cc(OCCN5CCCCC5)ccc34)ccc12` [Example 79, N,1,2-trimethyl-6-{[7-(2-piperidin-1-ylethoxy)quinolin-4-yl]oxy}-1H-indole-3-carboxamide] was above 0.01 µM; that for `COc1ccc2c(Oc3ccc4c(C(=O)NCC(C)O)c(C)sc4c3)ccnc2c1` (centres unmarked) [Example 80, N(2-hydroxypropyl)-6-[(7-methoxyquinolin-4-yl)oxy]-2-methyl-1-benzothiophene3-carboxamide] was above 0.01 µM; that for `CCC(O)CNC(=O)c1c(C)sc2cc(Oc3ccnc4cc(OC)ccc34)ccc12` (centres unmarked) [Example 81, N-(2-hydroxybutyl)-6-[(7-methoxyquinolin-4-yl)oxy]-2-methyl-1-benzothiophene-3-carboxamide] was above 0.01 µM.

Compound `COc1ccc2c(Oc3ccc4c(C(=O)NCCC(C)O)c(C)sc4c3)ccnc2c1` (centres unmarked) [Example 82, N-(3-hydroxybutyl)-6-[(7-methoxyquinolin-4-yl)oxy]-2-methyl-1-benzothiophene-3-carboxamide] displayed a Ki above 0.01 µM.

`CNC(=O)c1c(C)oc2cc(Oc3ccnc4cc(OCC5OCCO5)ccc34)ccc12` [Example 83, 6-{[7-(1,3-dioxolan-2-ylmethoxy)quinolin-4-yl]oxy}-N,2-dimethyl-1-benzofuran-3-carboxamide] yielded a Ki below 0.001 µM. On to `COc1ccc2c(Oc3ccc4c(C(=O)NC[C@@H]5CCCO5)c(C)oc4c3)ccnc2c1` [Example 85, 6-[(7-methoxyquinolin-4-yl)oxy]-2-methyl-N-[(2S)-tetrahydrofuran-2-ylmethyl]-1-benzofuran-3-carboxamide], for which the Ki is above 0.01 µM. As to `COCC(C)NC(=O)c1c(C)oc2cc(Oc3ccnc4cc(OC)ccc34)ccc12` (centres unmarked) [Example 87, 6-[(7-methoxyquinolin-4-yl)oxy]-2-methyl-N-[2-methoxy-1-methyl-ethyl]-1-benzofuran-3-carboxamide], the Ki is above 0.01 µM.

For the compound `Cc1oc2cc(Oc3ccnc4cc(-c5ncccn5)ccc34)ccc2c1C(=O)NC1CC1` [Example 89, N-cyclopropyl-2-methyl-6-[(7-pyrimidin-2-ylquinolin-4-yl)oxy]-1-benzofuran-3-carboxamide], the Ki is below 0.001 µM.

Compound `CNCCOc1ccc2c(Oc3ccc4c(C(=O)NC5CC5)c(C)oc4c3)ccnc2c1` [Example 90, N-cyclopropyl-2-methyl-6-({7-[2-(methylamino)ethoxy]quinolin-4-yl}oxy)-1-benzofuran-3-carboxamide] registered a Ki below 0.001 µM.
